Columns and labels:
[1] = Luminescence activity of ZZ-fused nanoKAZ mutants expressed in E. coli (soluble fraction); assay type: biochemical; details: nanoKAZ with CTZ = 1.0
Protocol: The E. coli BL21 strain (manufactured by Novagen) was used as a host cell. The strain was cultured in 10 mL of Luria-Bertani medium containing ampicillin (50 μg/mL) at 37° C. for 18 hours. The seed culture was inoculated to 10 mL of LB medium and incubated for 3 hours, followed by cooling in an ice-water bath for 1 hour. IPTG was added to the culture medium at a final concentration of 0.2 mM, followed by incubation at 15° C. for further 20 hours. The E. coli cells were collected from 1 mL of the culture medium by centrifugation. The collected E. coli cells were suspended in 0.5 mL of 50 mM Tris-HCl (pH 7.6) containing 10 mM EDTA (manufactured by Wako Pure Chemical Industries, Ltd.). The cells were disrupted by sonication for 5 seconds using a Branson Model 250 Sonifire. The cells were subjected to high-speed centrifugation to recover 0.5 mL of the supernatant as a soluble fraction containing the ZZ-fused nanoKAZ mutant. This soluble fraction, 5 μL, was subjected to SDS-PAGE electrophoresis to confirm expression of the proteins. In FIG. 2, numerals 1 to 5 represent as follows: 1: molecular weight size markers; 2: nanoKAZ, 3: nanoKAZ-AQQL, 4: nanoKAZ-KVA, 5: nanoKAZ-FLM. The results in FIG. 2 reveal that each mutated nanoKAZ protein was expressed in E. coli as soluble proteins at the same expression level as in nanoKAZ.
After 5 μL of the soluble fraction solution obtained in EXAMPLE 3 was added to 100 μL of 50 mM Tris-HCl (pH 7.6)-10 mM EDTA containing 1 μg of coelenterazine (manufactured by JNC Corp.) or its analogue, a luminescence reaction was started. Luminescence activity was measured for 60 seconds using a luminometer (manufactured by Atto Inc.: AB2200). The relative maximum intensity of luminescence (Imax) and the integrated values for 60 seconds within parentheses in terms of relative intensity of luminescence are shown in TABLE 2.
The coelenterazine analogues used for substrate specificity studies were synthesized by the methods described in publications, respectively. Specifically, bis-coelenterazine was synthesized by the method described in Nakamura et al. (1997) Tetrahedron Lett. 38: 6405-6406, furimazine by the method described in Hall et al. (2012) ACS Chem. Biol. […], h-coelenterazine by the method described in Inouye et al (2010) Anal. Biochem. 407:247-252 and 6h-coelenterazine and 6h-f-coelenterazine by the method described in Inouye et al (2013) Biochem. Biophys. Res. Commun. 437: 23-28. f-coelenterazine was purchased from Prolume Ltd. Luminescence activity of the ZZ-fused nanoKAZ mutants was measured by the method described in EXAMPLE 4.

[2] = Luminescence activity of nanoKAZ mutants secreted into culture medium from CHO-K1 cells using secretory signal peptide sequence; assay type: biochemical; details: nanoKAZ with CTZ = 1.0
Protocol: (§1) Chinese hamster ovary cell line CHO-K1 was cultured in Ham's F-12 medium (manufactured by Wako Pure Chemical Industries, Ltd.) supplemented with 10% (v/v) fetal bovine serum (manufactured by Biowest Inc.). The CHO-K1 cells were seeded in a 6-well plate in 2×10^5 cells/well/2 mL medium (n=2) and cultured in an incubator at 37° C. in 5% (v/v) CO2. After 24 hours, the purified recombinant plasmid was transfected to CHO-K1 cells using a FuGene HD transfection kit (manufactured by Promega Corp.) and the cells were provided for subsequent experiment. Specifically, 1 μg of the recombinant plasmid, 0.1 μg of the internal standard vector pGL4.13 [Luc2/sv40] and 3.3 μL of FuGene HD were added to 100 μL of the medium and allowed to stand at room temperature for 15 minutes. Subsequently, 100 μL of the DNA-FuGene complex solution was added to the cells in the 6-well plate. After incubation for 46 hours, the culture medium was collected.
(§2) The crude enzyme solution, 5 μl, obtained in EXAMPLE 8 was added to 100 μl of 30 mM Tris-HCl (pH 7.6)-10 mM EDTA (Wako Pure Chemical Industries, Ltd.) containing 1 μg of coelenterazine (manufactured by JNC Corp.), and the luminescence reaction was started. Luminescence activity was measured for 60 seconds using a luminometer (manufactured by Atto Inc.: AB2200); the maximum intensity of luminescence (Imax) and the integrated values for 60 seconds within parentheses in terms of relative intensity of luminescence are shown in TABLE 3.
(§3) Luminescence activity of the nanoKAZ mutants secreted into the culture medium from animal cultured cells using the secretory signal peptide sequence was measured by the method described in EXAMPLE 9. […] The nanoKAZ-AQQL mutant is secretable protein and can use coelenterazine as the most efficient substrate for the luminescence reaction.

[3] = as above; assay type: biochemical; details: substrate furimazine, with secretory signal peptide, nanoKAZ with CTZ = 1.0
Protocol: as §1, with “Subsequently, 100 μL of the DNA-FuGene complex solution was added to the cells in the 6-well plate. After incubation for 46 hours, the culture medium was collected.” left out
Luminescence activity was measured for 60 seconds using a luminometer (manufactured by Atto Inc.: AB2200); the maximum intensity of luminescence (Imax) and the integrated values for 60 seconds within parentheses in terms of relative intensity of luminescence are shown in TABLE 3.
as §3

[4] = Luminescence activity of nanoKAZ mutants in culture medium of CHO-K1 cells without secretory signal peptide sequence; assay type: biochemical; details: substrate coelenterazine (CTZ), nanoKAZ = 1.0
Protocol: Chinese hamster ovary cell line CHO-K1 was cultured in Ham's F-12 medium (manufactured by Wako Pure Chemical Industries, Ltd.) supplemented with 10% (v/v) fetal bovine serum (manufactured by Biowest Inc.). The CHO-K1 cells were seeded in a 6-well plate in 2×10^5 cells/well/2 mL medium (n=2) and cultured in an incubator at 37° C. in 5% (v/v) CO2. After 24 hours, the purified recombinant plasmid was transfected to CHO-K1 cells using a FuGene HD transfection kit (manufactured by Promega Corp.) and the cells were provided for subsequent experiment. […]
as §2
Luminescence activity of the nanoKAZ mutants in culture medium, which were secreted from animal culture cells without using a secretory signal peptide sequence, was measured by the method described in EXAMPLE 9. […]

[5] = reported in the literature (Patent Document 2, Non-Patent Documents 5 and 6); cited from earlier work
[6] = substrate 6h-coelenterazine, with secretory signal peptide
[7] = substrate 6h-f-coelenterazine, with secretory signal peptide
[8] = substrate bis-coelenterazine, with secretory signal peptide
[9] = substrate coelenterazine (CTZ), with Gaussia luciferase secretory signal peptide
[10] = substrate f-coelenterazine, with secretory signal peptide
[11] = substrate h-coelenterazine, with secretory signal peptide

Substance: nanoKAZ: known mutated 19 kDa catalytic protein of Oplophorus luciferase with 16 amino acid mutations; amino acid sequence SEQ ID NO: 2
- Relative maximum intensity of luminescence Imax ([1]; substrate 6h-coelenterazine): 0.6
- integrated values of relative intensity of luminescence for 1 min ([1]; substrate 6h-coelenterazine): (0.4)
- Relative maximum intensity of luminescence Imax ([1]; substrate 6h-f-coelenterazine): 7.9
- integrated values of relative intensity of luminescence for 1 min ([1]; substrate 6h-f-coelenterazine): (4.6)
- Relative maximum intensity of luminescence Imax ([1]; substrate bis-coelenterazine): 9.0
- integrated values of relative intensity of luminescence for 1 min ([1]; substrate bis-coelenterazine): (6.3)
- Relative maximum intensity of luminescence Imax ([1]; substrate coelenterazine (CTZ)): 1.0
- integrated values of relative intensity of luminescence for 1 min ([1]; substrate coelenterazine (CTZ)): (1.0)
- Relative maximum intensity of luminescence Imax ([1]; substrate f-coelenterazine): 20.2
- integrated values of relative intensity of luminescence for 1 min ([1]; substrate f-coelenterazine): (10.0)
- Relative maximum intensity of luminescence Imax ([1]; substrate furimazine): 4.8
- integrated values of relative intensity of luminescence for 1 min ([1]; substrate furimazine): (3.7)
- Relative maximum intensity of luminescence Imax ([1]; substrate h-coelenterazine): 14.2
- integrated values of relative intensity of luminescence for 1 min ([1]; substrate h-coelenterazine): (7.4)
- Relative maximum intensity of luminescence Imax [2, 6]: 0.8
- integrated values of relative intensity of luminescence for 1 min [2, 6]: (0.7)
- Relative maximum intensity of luminescence Imax [2, 7]: 11.7
- integrated values of relative intensity of luminescence for 1 min [2, 7]: (11.8)
- Relative maximum intensity of luminescence Imax [2, 8]: 11.1
- integrated values of relative intensity of luminescence for 1 min [2, 8]: (11.1)
- Relative maximum intensity of luminescence Imax [2, 9]: 1.0
- integrated values of relative intensity of luminescence for 1 min [2, 9]: (1.0)
- Relative maximum intensity of luminescence Imax [2, 10]: 21.6
- integrated values of relative intensity of luminescence for 1 min [2, 10]: (12.2)
- Relative maximum intensity of luminescence Imax [2, 11]: 16.4
- integrated values of relative intensity of luminescence for 1 min [2, 11]: (9.9)
- Relative maximum intensity of luminescence Imax [3]: 5.9
- integrated values of relative intensity of luminescence for 1 min [3]: (6.2)
- Relative maximum intensity of luminescence Imax [4]: 1.0 (1.0)
- integrated values of relative intensity of luminescence for 1 min [4]: 1.0 (1.0)
- luminescence activity, fold higher than that of native 19 kDa protein [5]: approximately 10 fold
